Data: US11370798B2 (Vertex Pharmaceuticals Incorporated, priority 2012, dated 2022)

Test system: HCT116 colorectal cancer cells
Experiment: Cisplatin sensitization assay (96 h cell viability MTS);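 further: Test-compound concentration that lowers the Cisplatin IC50 by a set fold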
Format: cell-based
Details: compound and Cisplatin added simultaneously, Cisplatin sensitization value
Procedure, shortened: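 Viability read by MTS (1 h at 37° C) after 96 h co-exposure at 37° C, 5% CO2. Test compound and cisplatin were dosed simultaneously in a full concentration matrix, each 2-fold serially diluted from 10 μM final; sensitization values binned in μM.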

| SMILES | Cisplatin Sensitization Assay |
| --- | --- |
| CC1(C)CN(c2ccncc2NC(=O)c2c(N)nn3cc(F)cnc23)CCS1(=O)=O [I-N-252, 2-amino-N-(4-(2,2-dimethyl-1,1-dioxidothiomorpholino)pyridin-3-yl)-6-fluoropyrazolo[1,5-a]pyrimidine-3-carboxamide] | +++ (Cisplatin sensitization value of <0.02 μM) |
| Nc1nn2cc(F)cnc2c1C(=O)Nc1cnccc1-c1ccc(C(=O)N2CCN3CCC2CC3)cc1F [I-C-50, N-(4-(4-(1,4-diazabicyclo[3.2.2]nonane-4-carbonyl)-2-fluorophenyl)pyridin-3-yl)-2-amino-6-fluoropyrazolo[1,5-a]pyrimidine-3-carboxamide] | +++ (Cisplatin sensitization value of <0.02 μM) |
| Nc1nn2cc(F)cnc2c1C(=O)Nc1cncc(F)c1N1CCC(C(=O)NCCN2CCC2)CC1 [I-G-42, 2-amino-N-(4-(4-((2-(azetidin-1-yl)ethyl)carbamoyl)piperidin-1-yl)-5-fluoropyridin-3-yl)-6-fluoropyrazolo[1,5-a]pyrimidine-3-carboxamide] | +++ (Cisplatin sensitization value of <0.02 μM) |
| CO[C@H]1CCN(C(=O)C2CCN(c3ccncc3NC(=O)c3c(N)nn4cc(F)cnc34)CC2)C1 [I-G-94, (S)-2-amino-6-fluoro-N-(4-(4-(3-methoxypyrrolidine-1-carbonyl)piperidin-1-yl)pyridin-3-yl)pyrazolo[1,5-a]pyrimidine-3-carboxamide] | +++ (Cisplatin sensitization value of <0.02 μM) |
| Nc1nn2cc(F)cnc2c1C(=O)Nc1cncc(F)c1N1CC(=O)N2CCCC2C1 (centres unmarked) [I-N-232, 2-amino-6-fluoro-N-(5-fluoro-4-(4-oxohexahydropyrrolo[1,2-a]pyrazin-2(1H)-yl)pyridin-3-yl)pyrazolo[1,5-a]pyrimidine-3-carboxamide] | ++ (Cisplatin sensitization value>0.02 μM but <0.2 μM) |
| CC(=O)N1CCC(c2ccncc2NC(=O)c2c(N)nn3cc(F)cnc23)CC1 [I-C-69, N-(4-(1-acetylpiperidin-4-yl)pyridin-3-yl)-2-amino-6-fluoropyrazolo[1,5-a]pyrimidine-3-carboxamide] | +++ (Cisplatin sensitization value of <0.02 μM) |
| Nc1nn2cc(Cl)cnc2c1C(=O)Nc1cnccc1OC1CCNCC1 [I-O-80, 2-amino-6-chloro-N-(4-(piperidin-4-yloxy)pyridin-3-yl)pyrazolo[1,5-a]pyrimidine-3-carboxamide] | +++ (Cisplatin sensitization value of <0.02 μM) |
| CN1CC2(CCC1=O)CCN(c1ccncc1NC(=O)c1c(N)nn3cc(F)cnc13)CC2 [I-N-231, 2-amino-6-fluoro-N-(4-(2-methyl-3-oxo-2,9-diazaspiro[5.5]undecan-9-yl)pyridin-3-yl)pyrazolo[1,5-a]pyrimidine-3-carboxamide] | +++ (Cisplatin sensitization value of <0.02 μM) |
| Nc1nn2cc(F)cnc2c1C(=O)Nc1cncc(F)c1N1CCN(C(=O)CN2CCC2)CC1 [I-N-160, 2-amino-N-(4-(4-(2-(azetidin-1-yl)acetyl)piperazin-1-yl)-5-fluoropyridin-3-yl)-6-fluoropyrazolo[1,5-a]pyrimidine-3-carboxamide] | +++ (Cisplatin sensitization value of <0.02 μM) |
| Nc1nn2cc(F)cnc2c1C(=O)Nc1cncc(F)c1N1CCC(C(=O)N2CCN3CCCC3C2)CC1 (centres unmarked) [I-G-10, 2-amino-6-fluoro-N-(5-fluoro-4-(4-(octahydropyrrolo[1,2-a]pyrazine-2-carbonyl)piperidin-1-yl)pyridin-3-yl)pyrazolo[1,5-a]pyrimidine-3-carboxamide] | +++ (Cisplatin sensitization value of <0.02 μM) |
| COC(=O)[C@H]1CC[C@H](Oc2ccncc2NC(=O)c2c(N)nn3cc(F)cnc23)CC1 [I-O-13, (1r,4r)-methyl 4-((3-(2-amino-6-fluoropyrazolo[1,5-a]pyrimidine-3-carboxamido)pyridin-4-yl)oxy)cyclohexanecarboxylate] | +++ (Cisplatin sensitization value of <0.02 μM) |
| Nc1nn2cc(F)cnc2c1C(=O)Nc1cnccc1N1CCC(C(=O)N2CC3(CCO3)C2)CC1 [I-G-90, N-(4-(4-(1-oxa-6-azaspiro[3.3]heptane-6-carbonyl)piperidin-1-yl)pyridin-3-yl)-2-amino-6-fluoropyrazolo[1,5-a]pyrimidine-3-carboxamide] | +++ (Cisplatin sensitization value of <0.02 μM) |
| N#CCc1cnc2c(C(=O)Nc3cnccc3O[C@@H]3CCNC3)c(N)nn2c1 [I-O-87, (R)-2-amino-6-(cyanomethyl)-N-(4-(pyrrolidin-3-yloxy)pyridin-3-yl)pyrazolo[1,5-a]pyrimidine-3-carboxamide] | ++ (Cisplatin sensitization value>0.02 μM but <0.2 μM) |
| Nc1nn2cc(F)cnc2c1C(=O)Nc1cnccc1N1CCC(CN2CCC(F)(F)C2)CC1 [I-N-197, 2-amino-N-(4-(4-((3,3-difluoropyrrolidin-1-yl)methyl)piperidin-1-yl)pyridin-3-yl)-6-fluoropyrazolo[1,5-a]pyrimidine-3-carboxamide] | +++ (Cisplatin sensitization value of <0.02 μM) |
| Nc1nn2cc(F)cnc2c1C(=O)Nc1cnccc1N1CCN(C2CCOCC2)CC1 [I-N-11, 2-amino-6-fluoro-N-(4-(4-(tetrahydro-2H-pyran-4-yl)piperazin-1-yl)pyridin-3-yl)pyrazolo[1,5-a]pyrimidine-3-carboxamide] | ++ (Cisplatin sensitization value>0.02 μM but <0.2 μM) |
| N#CCc1cnc2c(C(=O)Nc3cnccc3O[C@@H]3CCOC3)c(N)nn2c1 [I-O-31, (R)-2-amino-6-(cyanomethyl)-N-(4-((tetrahydrofuran-3-yl)oxy)pyridin-3-yl)pyrazolo[1,5-a]pyrimidine-3-carboxamide] | +++ (Cisplatin sensitization value of <0.02 μM) |
| Nc1nn2cc(F)cnc2c1C(=O)Nc1cnccc1N1CCC(C(=O)N2CCCC2)CC1 [I-G-83, 2-amino-6-fluoro-N-(4-(4-(pyrrolidine-1-carbonyl)piperidin-1-yl)pyridin-3-yl)pyrazolo[1,5-a]pyrimidine-3-carboxamide] | +++ (Cisplatin sensitization value of <0.02 μM) |
| Nc1nn2cc(F)cnc2c1C(=O)Nc1cncc(F)c1N1CCC(CN2CCCC2=O)CC1 [I-N-213, 2-amino-6-fluoro-N-(5-fluoro-4-(4-((2-oxopyrrolidin-1-yl)methyl)piperidin-1-yl)pyridin-3-yl)pyrazolo[1,5-a]pyrimidine-3-carboxamide] | +++ (Cisplatin sensitization value of <0.02 μM) |
| Nc1nn2cc(F)cnc2c1C(=O)Nc1cnccc1N1CCN(C(=O)C2COC2)CC1 [I-N-249] | +++ (Cisplatin sensitization value of <0.02 μM) |
| C[C@@H]1CN(C(=O)C2CCN(c3c(F)cncc3NC(=O)c3c(N)nn4cc(F)cnc34)CC2)CCN1C [I-G-50, (R)-2-amino-N-(4-(4-(3,4-dimethylpiperazine-1-carbonyl)piperidin-1-yl)-5-fluoropyridin-3-yl)-6-fluoropyrazolo[1,5-a]pyrimidine-3-carboxamide] | +++ (Cisplatin sensitization value of <0.02 μM) |
| Nc1nn2cc(F)cnc2c1C(=O)Nc1cncc(Cl)c1N1CCN2CCN(C3COC3)CC2C1 (centres unmarked) [I-N-38, 2-amino-N-(5-chloro-4-(8-(oxetan-3-yl)hexahydro-1H-pyrazino[1,2-a]pyrazin-2(6H)-yl)pyridin-3-yl)-6-fluoropyrazolo[1,5-a]pyrimidine-3-carboxamide] | ++ (Cisplatin sensitization value>0.02 μM but <0.2 μM) |
| Cc1nc(C)n(-c2ccncc2NC(=O)c2c(N)nn3cc(F)cnc23)n1 [I-N-218, 2-amino-N-(4-(3,5-dimethyl-1H-1,2,4-triazol-1-yl)pyridin-3-yl)-6-fluoropyrazolo[1,5-a]pyrimidine-3-carboxamide] | + (Cisplatin sensitization value>0.2 μM but <5 μM) |
| Nc1nn2cc(Cl)cnc2c1C(=O)Nc1cnccc1N1CCC(N2CCCC2)CC1 [I-N-105, 2-amino-6-chloro-N-(4-(4-(pyrrolidin-1-yl)piperidin-1-yl)pyridin-3-yl)pyrazolo[1,5-a]pyrimidine-3-carboxamide] | +++ (Cisplatin sensitization value of <0.02 μM) |
| Nc1nn2cc(F)cnc2c1C(=O)Nc1cncc(F)c1N1CCN2C(=O)CC[C@@H]2C1 [I-N-186, (R)-2-amino-6-fluoro-N-(5-fluoro-4-(6-oxohexahydropyrrolo[1,2-a]pyrazin-2(1H)-yl)pyridin-3-yl)pyrazolo[1,5-a]pyrimidine-3-carboxamide] | +++ (Cisplatin sensitization value of <0.02 μM) |
| Nc1nn2cc(Cl)cnc2c1C(=O)Nc1cnccc1O[C@H]1CCCNC1 [I-O-74, (S)-2-amino-6-chloro-N-(4-(piperidin-3-yloxy)pyridin-3-yl)pyrazolo[1,5-a]pyrimidine-3-carboxamide] | ++ (Cisplatin sensitization value>0.02 μM but <0.2 μM) |
| Nc1nn2cc(F)cnc2c1C(=O)Nc1cnccc1N1CCN(C2COC2)C2CC21 (centres unmarked) [I-N-31, 2-amino-6-fluoro-N-(4-(5-(oxetan-3-yl)-2,5-diazabicyclo[4.1.0]heptan-2-yl)pyridin-3-yl)pyrazolo[1,5-a]pyrimidine-3-carboxamide] | + (Cisplatin sensitization value>0.2 μM but <5 μM) |
| Nc1nn2cc(F)cnc2c1C(=O)Nc1cncc(F)c1N1CCN(C2CCOCC2)CC1 [I-N-121, 2-amino-6-fluoro-N-(5-fluoro-4-(4-(tetrahydro-2H-pyran-4-yl)piperazin-1-yl)pyridin-3-yl)pyrazolo[1,5-a]pyrimidine-3-carboxamide] | +++ (Cisplatin sensitization value of <0.02 μM) |
| Nc1nn2cc(F)cnc2c1C(=O)Nc1cnccc1N1CCC(C(=O)N2CC(F)C2)CC1 [I-G-82, 2-amino-6-fluoro-N-(4-(4-(3-fluoroazetidine-1-carbonyl)piperidin-1-yl)pyridin-3-yl)pyrazolo[1,5-a]pyrimidine-3-carboxamide] | +++ (Cisplatin sensitization value of <0.02 μM) |
| Cc1ccncc1NC(=O)c1c(N)nn2cc(Cl)cnc12 [I-C-2, 2-amino-6-chloro-N-(4-methylpyridin-3-yl)pyrazolo[1,5-a]pyrimidine-3-carboxamide] | ++ (Cisplatin sensitization value>0.02 μM but <0.2 μM) |
